In publication PMC12267056 (Nature, 2025):
Several values for one entry are separate records, joined by “and”; a condition that tells them apart may be missing. Equal entries are not always repeated. Where two headings read alike, the source gives them in different places.

Columns and labels:
[1] = target: T1, SLC35B1-Fv-MBP fusion protein (Homo sapiens, UniProt P78383); experiment: IC50 for ADP competition of [3H]-ADP/ATP transport, SLC35B1-Fv-MBP; type: biochemical; conditions: read-out: IC50, external ADP competition of [3H]-ADP/ATP transport; SLC35B1-Fv-MBP fusion protein in proteoliposomes
T1 construct: TEV site (C); GFP (C); His8 (C); made in house; host or cells: SLC35B1: Saccharomyces cerevisiae FGY217; Fv–MBP: Brevibacillus choshinensis (secreted)
T1 sequence (P78383 1-322): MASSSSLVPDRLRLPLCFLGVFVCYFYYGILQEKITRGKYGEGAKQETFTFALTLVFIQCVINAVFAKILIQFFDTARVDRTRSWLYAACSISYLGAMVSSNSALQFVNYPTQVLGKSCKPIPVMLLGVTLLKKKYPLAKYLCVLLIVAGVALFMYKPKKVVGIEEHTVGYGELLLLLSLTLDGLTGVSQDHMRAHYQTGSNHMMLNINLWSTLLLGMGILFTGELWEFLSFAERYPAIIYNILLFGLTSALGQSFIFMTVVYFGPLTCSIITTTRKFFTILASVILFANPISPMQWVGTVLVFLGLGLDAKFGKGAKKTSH

[2] = target: T2, human SLC35B1 (wild type) (Homo sapiens, UniProt P78383); experiment: Competitive uptake assay: [3H]ADP uptake with 1 mM cold nucleotide; type: biochemical; design: made in house; host or cells: Saccharomyces cerevisiae FGY217; conditions: competitor 1mM; sheet ED 6F; SLC35B1 proteoliposomes
T2 sequence (P78383 1-322): T1 sequence (P78383 1-322)

[3] = target: T2, human SLC35B1 (wild type); experiment: STD NMR of nucleotide interaction with SLC35B1 proteoliposomes; type: binding; design: made in house; host or cells: Saccharomyces cerevisiae FGY217
[4] = target: T2, human SLC35B1 (wild type); experiment: [3H]ADP/ATP exchange kinetics (Michaelis–Menten); type: biochemical; design: made in house; host or cells: Saccharomyces cerevisiae FGY217
[5] = target: T2, human SLC35B1 (wild type); type: binding; design: made in house; host or cells: Saccharomyces cerevisiae FGY217; conditions: for GFP fluorescence after heating (source data Fig 1B): 1 mM substrate
[6] = target: T2, human SLC35B1 (wild type); experiment: IC50 for competitive inhibition of [3H]ADP uptake in proteoliposomes; type: biochemical; design: made in house; host or cells: Saccharomyces cerevisiae FGY217

## Nc1ncnc2c1ncn2[C@@H]1O[C@H](COP(=O)(O)OP(=O)(O)O)[C@@H](O)[C@H]1O [ADP]
[1]
  IC50: 2.77 ± 0.41 µM
[2]
  [3H]ADP uptake in the presence of cold competitor nucleotide (individual replicates; no-competitor control about 100): -1.767 and -1.033 and 2.879 and 5.424 and 4.368 and 4.176
[3]
  1H integral (off-resonance spectrum): 1.99E+11
  STD integral: 3.67E+10
[4]; [ADP] 0.2
  ADP/ATP exchange initial rate: 18.1311 nmols / min* mg and 18.3179 nmols / min* mg and 18.8253 nmols / min* mg
[4]; [ADP] 0.5
  ADP/ATP exchange initial rate: 28.9111 nmols / min* mg and 29.9816 nmols / min* mg and 28.6714 nmols / min* mg
[4]; [ADP] 1
  ADP/ATP exchange initial rate: 44.617 nmols / min* mg and 42.2865 nmols / min* mg and 44.5891 nmols / min* mg
[4]; [ADP] 5
  ADP/ATP exchange initial rate: 114.496 nmols / min* mg and 126.14 nmols / min* mg and 112.107 nmols / min* mg
[4]; [ADP] 10
  ADP/ATP exchange initial rate: 156.88 nmols / min* mg and 168.644 nmols / min* mg and 150.078 nmols / min* mg
[4]; [ADP] 20
  ADP/ATP exchange initial rate: 155.074 nmols / min* mg and 183.464 nmols / min* mg and 182.884 nmols / min* mg
[5]; 1 mM nucleotide, purified wild-type SLC35B1–GFP
  ΔTm (average melting temperature increase): 5.3 °C
[5]; 1 mM nucleotide, wild-type SLC35B1–GFP
  ΔTm, individual titrations (source data): 5.49 and 5.09 and 5.45
[5]; temperature 4
  GFP fluorescence after heating (source data Fig 1B): 98.7528 and 95.6204 and 104.931 and 101.189 and 101.102 and 98.4048
[5]; temperature 10
  GFP fluorescence after heating (source data Fig 1B): 87.2672 and 91.8788 and 95.3593 and 107.889 and 92.923 and 94.9243
[5]; temperature 20
  GFP fluorescence after heating (source data Fig 1B): 90.7477 and 91.6178 and 91.1827 and 94.7503 and 88.9204 and 86.6668
[5]; temperature 30
  GFP fluorescence after heating (source data Fig 1B): 85.9881 and 86.4928 and 88.9204 and 91.0957 and 89.5295 and 91.7048
[5]; temperature 40
  GFP fluorescence after heating (source data Fig 1B): 42.8735 and 42.656 and 39.9412 and 40.3066 and 43.7088 and 44.6834
[5]; temperature 50
  GFP fluorescence after heating (source data Fig 1B): 5.748 and 5.6183 and 5.416 and 5.384 and 5.915 and 6.0377
[5]; temperature 60
  GFP fluorescence after heating (source data Fig 1B): 2.3127 and 2.334 and 2.351 and 2.357 and 2.381 and 2.422
[5]; temperature 70
  GFP fluorescence after heating (source data Fig 1B): 0.4378 and 0.4464 and 0.4526 and 0.4781 and 0.469 and 0.4867
[6]; external cold nucleotide 0.01 uM
  Normalized [3H]-ADP uptake activity (IC50 curve): 93.6927 and 106.307 and 98.0637
[6]; external cold nucleotide 0.1 uM
  Normalized [3H]-ADP uptake activity (IC50 curve): 87.3862 and 98.7018 and 89.3272
[6]; external cold nucleotide 1 uM
  Normalized [3H]-ADP uptake activity (IC50 curve): 48.8239 and 76.0895 and 44.7547
[6]; external cold nucleotide 10 uM
  Normalized [3H]-ADP uptake activity (IC50 curve): 22.7468 and 19.9682 and 21.5397
[6]; external cold nucleotide 100 uM
  Normalized [3H]-ADP uptake activity (IC50 curve): 8.173 and 6.95 and 8.424
[6]; wild-type SLC35B1 proteoliposomes
  IC50: 1.6 µM
